# Laboratory results as given in patent US8163779B2, “Glucokinase activators” (Takeda San Diego, Inc., priority 2006, dated 2012).
# Target: T1, glucokinase (GK) (Homo sapiens, UniProt P35557)
# T1 construct: I.D. No. 1 corresponds to residues 12-465 of glucokinase; made in house; host or cells: E. coli DH10b-T1r
# T1 sequence (P35557 with tags, fused parts or gaps isoform P35557-2): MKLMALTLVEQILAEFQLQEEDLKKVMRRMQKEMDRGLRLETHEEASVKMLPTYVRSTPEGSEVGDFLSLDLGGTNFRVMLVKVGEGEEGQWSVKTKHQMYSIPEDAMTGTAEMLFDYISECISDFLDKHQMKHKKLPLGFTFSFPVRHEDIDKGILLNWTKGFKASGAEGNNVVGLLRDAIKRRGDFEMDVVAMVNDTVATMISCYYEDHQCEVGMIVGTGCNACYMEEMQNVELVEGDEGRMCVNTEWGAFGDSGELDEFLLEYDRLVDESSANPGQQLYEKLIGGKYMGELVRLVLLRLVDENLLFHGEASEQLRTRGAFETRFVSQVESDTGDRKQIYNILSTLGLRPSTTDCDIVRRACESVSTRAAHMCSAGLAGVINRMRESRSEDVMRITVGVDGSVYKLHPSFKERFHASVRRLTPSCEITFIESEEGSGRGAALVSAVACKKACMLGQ
# Test: enzymatic glucokinase activity assay (ATP consumption, KinaseGlo luminescence)
# Assay type: biochemical
# Conditions: recombinant GK residues 12-465; 5 μM ATP, 5 mM Glucose; Kact = concentration that displays 50% of the maximal increase in GK activity; read-out: pKact
# Text: The activity of compounds as glucokinase activators may be assayed in vitro, in vivo or in a cell line. Provided below is an enzymatic glucokinase activity assay.
# Purified glucokinase may be obtained as follows. […] SEQ.
# The expression of recombinant glucokinase protein may be carried out by transformation and growth of DH10b-T1r E. coli cells incorporating the (pFLAG-CTC) plasmid in LB media. Protein expression can be induced in this system by the addition of IPTG to the culture medium.
# Recombinant protein may be isolated from cellular extracts by passage over Sepharose Q Fast Flow resin (Pharmacia). This partially purified GK extract may then be further purified by a second passage over Poros HQ 10 (Applied Biosystems). The purity of GK may be determined on denaturing SDS-PAGE gel. Purified GK may then be concentrated to a final concentration of 20.0 mg/ml. After flash freezing in liquid nitrogen, the proteins can be stored at −78° C. in a buffer containing 25 mM TRIS-HCl pH 7.6, 50 mM NaCl, and 0.5 mM TCEP.
# The activation properties of compounds for GK may be determined using a black 384-well-plate format under the following reaction conditions: 25 mM Hepes pH 7.2, 25 mM NaCl, 10 mM MgCl2, 0.01% Brij35, 1 mM DTT, 5 μM ATP, 5 mM Glucose 2% DMSO. The amount of ATP consumed may be determined quantitatively by addition of equal volume of luciferase reagent (luciferase+beetle luciferin—KinaseGlo Luminescent Kinase Assay kit from Promega). The luminescence intensity may be measured by using the Analyst HT from LJL Biosystems.
# The reaction mixture may then be incubated at room temperature for 60 min, and quenched and developed by addition of 10 μL of luciferase reagent. Luminescence intensities of the resulting reaction mixtures may be measured after a 10 min incubation at room temperature. The luminescence intensity may be measured by using the Analyst HT from LJL Biosystems.
# pKact values may be calculated by non-linear curve fitting of the compound concentrations and luminescence intensities to a standard inhibition/activation equation.
row,Structure (SMILES),EC50
1,"Cc1cc(C)cc(CC(C(=O)Nc2ncc(Cl)s2)n2ccc(S(C)(=O)=O)cc2=O)c1 (stereo not shown) [Example 24, N-(5-chlorothiazol-2-yl)-3-(3,5-dimethylphenyl)-2-(4-(methylsulfonyl)-2-oxopyridin-1(2H)-yl)propanamide]",> 15.8 µM
2,"Cc1cc(S(=O)(=O)C2CC2)cc(=O)n1C(CC(C)(C)C)C(=O)Nc1ncc(Cl)s1 (stereo not shown) [Example 25, N-(5-chlorothiazol-2-yl)-2-(4-(cyclopropylsulfonyl)-6-methyl-2-oxopyridin-1(2H)-yl)-4,4-dimethylpentanamide]",< 1.58 µM
3,"CC#CCC(C(=O)Nc1ncc(Cl)s1)n1ccc(S(C)(=O)=O)cc1=O (stereo not shown) [Example 26, N-(5-chlorothiazol-2-yl)-2-(4-(methylsulfonyl)-2-oxopyridin-1(2H)-yl)hex-4-ynamide]",> 15.8 µM
4,"COc1ccc(CC(C(=O)Nc2nccs2)n2c(C)cc(S(=O)(=O)C3CCCC3)cc2=O)cc1 (stereo not shown) [Example 27, 2-(4-(cyclopentylsulfonyl)-6-methyl-2-oxopyridin-1(2H)-yl)-3-(4-methoxyphenyl)-N-(thiazol-2-yl)propanamide]",> 15.8 µM
5,"Cc1cc(S(=O)(=O)C2CCCC2)cc(=O)n1C(Cc1ccc(O)cc1)C(=O)Nc1nccs1 (stereo not shown) [Example 28, 2-(4-(cyclopentylsulfonyl)-6-methyl-2-oxopyridin-1(2H)-yl)-3-(4-hydroxyphenyl)-N-(thiazol-2-yl)propanamide]",> 15.8 µM
6,"O=C(Nc1ncc(Cl)s1)[C@@H](CC1CCOCC1)n1ccc(S(=O)(=O)C2CC2)cc1=O [Example 29, (R)-N-(5-chlorothiazol-2-yl)-2-(4-(cyclopropylsulfonyl)-2-oxopyridin-1(2H)-yl)-3-(tetrahydro-2H-pyran-4-yl)propanamide]",> 15.8 µM
7,"O=C(Nc1ncc(Cl)s1)[C@H](CC1CCOCC1)n1ccc(S(=O)(=O)C2CC2)cc1=O [Example 30, (S)-N-(5-chlorothiazol-2-yl)-2-(4-(cyclopropylsulfonyl)-2-oxopyridin-1(2H)-yl)-3-(tetrahydro-2H-pyran-4-yl)propanamide]",< 1.58 µM
8,"O=C(Nc1ncc(Cl)s1)[C@@H](CC1CCOCC1)n1ccc(S(=O)(=O)C2CCCC2)cc1=O [Example 31, (R)-N-(5-chlorothiazol-2-yl)-2-(4-(cyclopentylsulfonyl)-2-oxopyridin-1(2H)-yl)-3-(tetrahydro-2H-pyran-4-yl)propanamide]",> 15.8 µM
9,"O=C(Nc1ncc(Cl)s1)[C@H](CC1CCOCC1)n1ccc(S(=O)(=O)C2CCCC2)cc1=O [Example 32, (S)-N-(5-chlorothiazol-2-yl)-2-(4-(cyclopentylsulfonyl)-2-oxopyridin-1(2H)-yl)-3-(tetrahydro-2H-pyran-4-yl)propanamide]",< 1.58 µM
10,"O=C(Nc1ncc(F)s1)[C@@H](CC1CCOCC1)n1ccc(S(=O)(=O)C2CCCC2)cc1=O [Example 33, (R)-2-(4-(cyclopentylsulfonyl)-2-oxopyridin-1(2H)-yl)-N-(5-fluorothiazol-2-yl)-3-(tetrahydro-2H-pyran-4-yl)propanamide]",1.58 to 15.8 µM
11,"O=C(Nc1ncc(F)s1)[C@H](CC1CCOCC1)n1ccc(S(=O)(=O)C2CCCC2)cc1=O [Example 34, (S)-2-(4-(cyclopentylsulfonyl)-2-oxopyridin-1(2H)-yl)-N-(5-fluorothiazol-2-yl)-3-(tetrahydro-2H-pyran-4-yl)propanamide]",< 1.58 µM
12,"O=C(Nc1ncc(F)s1)[C@H](CC1CCOCC1)n1ccc(S(=O)(=O)C2CC2)cc1=O [Example 35, (S)-2-(4-(cyclopropylsulfonyl)-2-oxopyridin-1(2H)-yl)-N-(5-fluorothiazol-2-yl)-3-(tetrahydro-2H-pyran-4-yl)propanamide]",< 1.58 µM
13,"O=C(Nc1ncc(F)s1)[C@@H](CC1CCOCC1)n1ccc(S(=O)(=O)C2CC2)cc1=O [Example 36, (R)-2-(4-(cyclopropylsulfonyl)-2-oxopyridin-1(2H)-yl)-N-(5-fluorothiazol-2-yl)-3-(tetrahydro-2H-pyran-4-yl)propanamide]",> 15.8 µM
